As a reminder, the Emax is the size of the effect at its maximum, as opposed to the concentration needed.

Some results are limits rather than exact numbers.

What all share (type): cell-based
Experiment [1] addresses T1, human muscarinic M4 receptor (Homo sapiens, UniProt P08173).
T1 construct: expressed in transfected cells
T1 sequence (P08173 1-479): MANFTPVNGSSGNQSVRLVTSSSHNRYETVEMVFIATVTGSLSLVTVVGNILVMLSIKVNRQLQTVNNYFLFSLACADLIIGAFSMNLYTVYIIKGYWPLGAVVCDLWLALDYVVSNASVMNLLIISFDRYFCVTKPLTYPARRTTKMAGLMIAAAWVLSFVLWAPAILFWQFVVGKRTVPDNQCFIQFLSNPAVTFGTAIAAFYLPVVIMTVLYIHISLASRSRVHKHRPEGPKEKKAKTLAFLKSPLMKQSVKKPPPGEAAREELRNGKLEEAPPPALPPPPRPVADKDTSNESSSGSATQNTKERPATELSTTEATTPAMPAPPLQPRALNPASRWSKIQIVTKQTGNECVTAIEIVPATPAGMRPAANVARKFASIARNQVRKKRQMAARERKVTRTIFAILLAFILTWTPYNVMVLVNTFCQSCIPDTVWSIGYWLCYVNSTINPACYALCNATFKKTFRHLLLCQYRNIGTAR
Briefly: Alphascreen Surefire phospho-ERK1/2 functional assay, M4. The note with it: for % Emax cf. ACh, M4 / EC50: CHO cells stably expressing human M4; for % Emax cf. ACh, M4 / Emax: Emax compared with ACh; for EC50: agonist 5 min, 37° C., read-out: pEC50 M4 (converted); for Emax: CHO, read-out: % Emax cf. ACh, M4, CHO cells stably expressing human M4. On the procedure: (§1) ERK1/2 phosphorylation is a downstream consequence of both Gq/11 and Gi/o protein coupled receptor activation, making it highly suitable for the assessment of M1, M3 (Gq/11 coupled) and M2, M4 receptors (Gi/o coupled), rather than using different assay formats for different receptor subtypes. CHO cells stably expressing the human muscarinic M1, M2, M3 or M4 receptor were plated (25K/well) onto 96-well tissue culture plates in MEM-alpha+10% dialysed FBS. Once adhered, cells were serum-starved overnight. Agonist stimulation was performed by the addition of 5 μL agonist to the cells for 5 min (37° C.). Media was removed and 50 μL of lysis buffer added. After 15 min, a 4 μL sample was transferred to 384-well plate and 7 μL of detection mixture added. Plates were incubated for 2 h with gentle agitation in the dark and then read on a PHERAstar plate reader.
(§2) pEC50 and Emax figures were calculated from the resulting data for each receptor subtype.

In experiment [2] the target is T2, human muscarinic M1 receptor (Homo sapiens, UniProt P11229).
T2 sequence (P11229 1-460): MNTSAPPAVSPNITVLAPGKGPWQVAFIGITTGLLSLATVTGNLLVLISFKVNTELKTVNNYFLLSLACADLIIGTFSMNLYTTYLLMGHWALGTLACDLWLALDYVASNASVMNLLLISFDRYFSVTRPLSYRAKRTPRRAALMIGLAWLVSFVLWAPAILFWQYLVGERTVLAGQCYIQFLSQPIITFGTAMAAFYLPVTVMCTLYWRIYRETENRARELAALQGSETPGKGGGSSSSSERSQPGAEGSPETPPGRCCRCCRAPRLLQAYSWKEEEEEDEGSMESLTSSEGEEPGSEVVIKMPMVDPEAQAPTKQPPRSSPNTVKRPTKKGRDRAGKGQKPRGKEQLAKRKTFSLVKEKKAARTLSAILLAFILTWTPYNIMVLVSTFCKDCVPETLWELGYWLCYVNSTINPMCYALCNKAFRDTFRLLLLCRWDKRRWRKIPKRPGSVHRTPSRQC
Nature of the experiment: Alphascreen Surefire phospho-ERK1/2 functional assay, M1. The note with it: for % Emax cf. ACh, M1 / Emax: Emax compared with ACh; for EC50: read-out: pEC50 M1 (converted); for Emax: CHO, read-out: % Emax cf. ACh, M1, CHO cells stably expressing human M1. The procedure:
as §1, §2

In experiment [3] the target is T3, human muscarinic M3 receptor (Homo sapiens, UniProt P20309).
T3 construct: expressed in transfected cells
T3 sequence (P20309 whole entry): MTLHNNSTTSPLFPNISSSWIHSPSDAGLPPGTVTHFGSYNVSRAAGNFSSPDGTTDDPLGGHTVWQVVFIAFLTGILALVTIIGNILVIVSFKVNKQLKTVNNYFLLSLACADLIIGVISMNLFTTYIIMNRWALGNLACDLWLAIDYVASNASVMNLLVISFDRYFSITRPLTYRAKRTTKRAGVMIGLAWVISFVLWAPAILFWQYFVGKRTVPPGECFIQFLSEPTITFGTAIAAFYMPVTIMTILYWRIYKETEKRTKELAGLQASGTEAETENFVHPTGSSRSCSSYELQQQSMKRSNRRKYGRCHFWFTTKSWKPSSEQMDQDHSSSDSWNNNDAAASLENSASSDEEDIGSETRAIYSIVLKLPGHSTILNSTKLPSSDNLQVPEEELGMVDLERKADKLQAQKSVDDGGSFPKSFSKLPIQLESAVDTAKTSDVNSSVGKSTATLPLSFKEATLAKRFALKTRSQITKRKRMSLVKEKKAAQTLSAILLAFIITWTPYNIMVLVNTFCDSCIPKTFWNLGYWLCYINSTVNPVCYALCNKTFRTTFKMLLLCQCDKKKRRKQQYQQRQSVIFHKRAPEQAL
Briefly: Alphascreen Surefire phospho-ERK1/2 functional assay, M3. The settings on record: for EC50 / % Emax cf. ACh, M3 / pEC50 M3: CHO cells stably expressing human M3; for EC50 / pEC50 M3: agonist 5 min, 37° C.; for EC50: read-out: pEC50 M3 (converted); for Emax: CHO, read-out: % Emax cf. ACh, M3, CHO cells stably expressing human M3; for Emax / % Emax cf. ACh, M3: Emax compared with ACh. On the procedure:
as §1, §2
Background: In Alpha technology, singlet oxygen from a donor bead excites a nearby acceptor bead.

Experiment [4] addresses T4, human muscarinic M2 receptor (Homo sapiens, UniProt P08172).
T4 sequence (P08172 1-466): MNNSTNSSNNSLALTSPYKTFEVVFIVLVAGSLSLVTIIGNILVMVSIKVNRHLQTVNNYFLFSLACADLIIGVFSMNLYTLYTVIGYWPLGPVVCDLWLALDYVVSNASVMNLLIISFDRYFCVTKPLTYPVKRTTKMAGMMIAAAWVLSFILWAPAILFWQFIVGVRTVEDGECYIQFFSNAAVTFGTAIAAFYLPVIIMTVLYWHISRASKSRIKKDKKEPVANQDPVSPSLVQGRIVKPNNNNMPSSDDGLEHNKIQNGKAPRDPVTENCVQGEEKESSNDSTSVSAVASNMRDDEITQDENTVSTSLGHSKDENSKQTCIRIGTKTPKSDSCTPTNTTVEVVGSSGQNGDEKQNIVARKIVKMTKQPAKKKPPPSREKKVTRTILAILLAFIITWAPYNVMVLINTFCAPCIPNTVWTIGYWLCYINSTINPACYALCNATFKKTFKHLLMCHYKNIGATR
Nature of the experiment: Alphascreen Surefire phospho-ERK1/2 functional assay, M2. The settings on record: for EC50 / % Emax cf. ACh, M2 / pEC50 M2: CHO cells stably expressing human M2; for EC50 / pEC50 M2: agonist 5 min, 37° C.; for EC50: read-out: pEC50 M2 (converted); for Emax: CHO, read-out: % Emax cf. ACh, M2, CHO cells stably expressing human M2; for Emax / % Emax cf. ACh, M2: Emax compared with ACh. On the procedure:
as §1, §2

Where [5] appears, read: CHO cells stably expressing human M1.
Where [6] appears, read: CHO cells stably expressing human M1, agonist 5 min, 37° C.

Consider `CCCON=C(CC)C1CCN(C2CCCN(C(=O)OCC)CC2)CC1` (single isomer, unassigned) [1-11 Isomer 2 (racemic)], for which, in experiment [1], the “% Emax cf. ACh, M4” value is 97%. Also, the EC50 in experiment [1] is 63.1 nM; in experiment [2] (setting [6]) it was 158 nM; in experiment [3], > 20 µM; in experiment [4], > 20 µM. Moreover, the “% Emax cf. ACh, M1” value in experiment [2] (setting [5]) stood at 99%. Further, the Emax is 6% in experiment [3] and 19% in experiment [4].

In the case of `CCOC(=O)N1CCCC(N2CCC(C(CCC(C)C)=NOC)CC2)CC1` (single isomer, unassigned) [1-6 Isomer 2 (racemic)], the EC50 is 126 nM in experiment [1], 39.8 nM in experiment [2] (setting [6]), > 20 µM in experiment [3] and > 20 µM in experiment [4]. For the same compound, the maximal response (Emax) turned out to be 65% in experiment [1], 96% in experiment [2], 16% in experiment [3] and 10% in experiment [4].

For the compound `CCOC(=O)N1CCCC(N2CCC(C(C)=NOC)CC2)CC1` (single isomer, unassigned) [1-1 Isomer 2 (racemic)], the EC50 in experiment [1] was 126 nM; in experiment [2] (setting [6]), 1580 nM; in experiment [3] it was > 20 µM; in experiment [4], > 20 µM. The Emax in experiment [1] was determined as 71%; in experiment [2] it was 54%; in experiment [3] it was 1%; in experiment [4], 4%.

In the case of `CCOC(=O)N1CCC2(CC(N3CCC(C(CC)=NOC)CC3)C2)C1` (single isomer, unassigned) [2-2 Isomer 4], in experiment [1], the “% Emax cf. ACh, M4” value came out at 105% and the EC50 is 20 nM. Further, the “% Emax cf. ACh, M1” value in experiment [2] (setting [5]) is reported as 59%. The EC50 in experiment [2] (setting [6]) is 200 nM. In addition, in experiment [3], the “% Emax cf. ACh, M3” value is on record as 18% and the “pEC50 M3” value was < 4.7. For the same compound, in experiment [4], the “% Emax cf. ACh, M2” value is listed as 69% and the “pEC50 M2” value is < 4.7.

`CCON=C(C)C1CCN(C2CCCN(C(=O)OCC)CC2)CC1` (single isomer, unassigned) [1-7 Isomer 1 (racemic)]: the EC50 in experiment [1] and in experiment [2] (setting [6]) was 631 nM in each case. The maximal response (Emax) in experiment [1] was 52%; in experiment [2] it was 48%.

In the case of `CCOC(=O)N1CCC[C@H](N2CCC(C(CC)=NOC)CC2)CC1` (single isomer, unassigned) [(S)-1-2 Isomer 1], the EC50 in experiment [1] was 63.1 nM; in experiment [2] (setting [6]), > 20000 nM; in experiment [3], > 20 µM; in experiment [4], > 20 µM. Moreover, the maximal response (Emax) was 81% in experiment [1], 21% in experiment [2] and 9% in experiment [3]. Besides, the “% Emax cf. ACh, M2” value in experiment [4] is listed as 11%.

Turning to `CCOC(=O)N1CCCC(N2CCC(C(CC)=NOC(C)C)CC2)CC1` (single isomer, unassigned) [1-12 Isomer 1 (racemic)], the “% Emax cf. ACh, M4” value in experiment [1] turned out to be 80%. Besides, the EC50 in experiment [1] is 63.1 nM; in experiment [2] (setting [6]), 100 nM; in experiment [3] it was > 20 µM; in experiment [4] it was > 20 µM. Besides, in experiment [2] (setting [5]), the “% Emax cf. ACh, M1” value came to 98%. In addition, the “% Emax cf. ACh, M3” value in experiment [3] is given as 6%. Moreover, in experiment [4], the “% Emax cf. ACh, M2” value came to 5%.

As to `CCOC(=O)N1CCC[C@H](N2CCC(C(CC)=NOC)CC2)CC1` (single isomer, unassigned) [(S)-1-2 Isomer 2], in experiment [1], the “% Emax cf. ACh, M4” value is reported as 81% and the EC50 was 50.1 nM. Further, the “% Emax cf. ACh, M1” value in experiment [2] (setting [5]) is given as 36%. Moreover, the EC50 in experiment [2] (setting [6]) was 501 nM. In experiment [3], the “% Emax cf. ACh, M3” value came to 7% and the “pEC50 M3” value is < 4.7. Further, in experiment [4], the “% Emax cf. ACh, M2” value worked out at 5% and the “pEC50 M2” value is < 4.7.

Consider `CCCON=C(C)C1CCN(C2CCCN(C(=O)OCC)CC2)CC1` (single isomer, unassigned) [1-8 Isomer 1 (racemic)], for which the EC50 in experiment [1] and in experiment [2] (setting [6]) was 794 nM each time. Also, the Emax came to 46% in experiment [1] and 65% in experiment [2].

Regarding `CCOC(=O)N1CCCC(N2CCC(C(=NOC)NCC(C)C)CC2)CC1` (racemic) [3-1 Mixture of isomers], the EC50 is 398 nM in experiment [1] and 251 nM in experiment [2] (setting [6]). For the same compound, the maximal response (Emax) in experiment [1] turned out to be 56%; in experiment [2] it was 136%.

On to `CCOC(=O)N1CCCC(N2CCC(C(C)=NOC(C)C)CC2)CC1` (single isomer, unassigned) [1-9 Isomer 2 (racemic)], for which, in experiment [1], the “% Emax cf. ACh, M4” value came to 81% and the EC50 was 398 nM. For the same compound, the “% Emax cf. ACh, M1” value in experiment [2] (setting [5]) was 46%. The “pEC50 M1” value in experiment [2] (setting [6]) is reported as 6.2.

Regarding `CCOC(=O)N1CCC[C@H](N2CCC(C(C)=NOC)CC2)CC1` (single isomer, unassigned) [(S)-1-1 Isomer 1], in experiment [1], the “% Emax cf. ACh, M4” value is 31% and the EC50 is 200 nM. For the same compound, the EC50 in experiment [2] (setting [6]) is 631 nM. The Emax in experiment [2] came to 47%.

On to `CCON=C(C)C1CCN(C2CCCN(C(=O)OCC)CC2)CC1` (single isomer, unassigned) [1-7 Isomer 2 (racemic)], for which the “% Emax cf. ACh, M4” value in experiment [1] came to 62%. The EC50 in experiment [1] was 251 nM; in experiment [2] (setting [6]), 501 nM. In addition, the “% Emax cf. ACh, M1” value in experiment [2] (setting [5]) came out at 66%.

For `CCCC(=NOC)C1CCN(C2CCCN(C(=O)OCC)CC2)CC1` (single isomer, unassigned) [1-3 Isomer 1 (racemic)], the EC50 in experiment [1] was 25.1 nM; in experiment [2] (setting [6]), 316 nM. Moreover, the maximal response (Emax) in experiment [1] amounted to 85%; in experiment [2], 106%.

For `CCCON=C(CC)C1CCN(C2CCCN(C(=O)OCC)CC2)CC1` (single isomer, unassigned) [1-11 Isomer 1 (racemic)], in experiment [1], the “% Emax cf. ACh, M4” value stood at 72% and the EC50 is 126 nM. Moreover, the EC50 in experiment [2] (setting [6]) is 251 nM. Besides, the Emax in experiment [2] was determined as 107%.

In the case of `CCCON=C(C)C1CCN(C2CCCN(C(=O)OCC)CC2)CC1` (single isomer, unassigned) [1-8 Isomer 2 (racemic)], in experiment [1], the “% Emax cf. ACh, M4” value is listed as 50% and the EC50 was 316 nM. Further, in experiment [2] (setting [5]), the “% Emax cf. ACh, M1” value is listed as 85%. The EC50 in experiment [2] (setting [6]) is 316 nM.

In the case of `CCOC(=O)N1CCCC(N2CCC(C(C)=NOC(C)C)CC2)CC1` (single isomer, unassigned) [1-9 Isomer 1 (racemic)], in experiment [1], the “% Emax cf. ACh, M4” value is given as 0%. Also, the EC50 in experiment [1] was > 20000 nM; in experiment [2] (setting [6]) it was 631 nM. Besides, the maximal response (Emax) in experiment [2] worked out at 57%.
